pIC50: −log10 of the molar value. Converted amounts (≈) assume the structure as drawn. Like-named read-outs stand apart in the source and are kept apart here.
Tests used:
[1] = tested on: Mtb H37Rv; test: Primary screen: MIC, IC50 and IC90 under aerobic conditions; assay type: cell-based; details: Mycobacterium tuberculosis
[2] = physchem; details: aqueous with cosolvent or surfactant or cyclodextrin, kinetic from dmso stock
[3] = tested on: Mtb H37Rv; test: Secondary assay: MIC, IC50 and IC90 repeated at lower starting concentrations; assay type: cell-based; details: Mycobacterium tuberculosis; for MIC: read-out: MIC aerobic condition
[4] = tested on: NRP Mtb H37Rv; test: microbe, parasite or virus in culture; assay type: cell-based; details: Mycobacterium tuberculosis
[5] = tested on: intracellular Mtb H37Rv; test: microbe, parasite or virus in culture; assay type: cell-based; details: Mycobacterium tuberculosis; for pIC50: THP-1, read-out: IC50 intracell; for IC90: THP-1, read-out: IC90 intracell
[6] = in vitro; details: human
[7] = tested on: Mtb H37Rv; test: Minimal bactericidal concentration; assay type: cell-based, Mycobacterium tuberculosis; details: Mtb H37Rv aerobic
[8] = tested on: Mycobacterium avium; test: MIC against nontuberculous mycobacteria, Alamar blue; assay type: cell-based; details: Mycobacterium avium
[9] = tested on: Mycobacterium abscessus; test: MIC, IC50, IC90 against nontuberculous mycobacteria; assay type: cell-based; details: for pIC50 / IC90 / MIC: Mycobacteroides abscessus
[10] = In vitro microsomal stability assay; details: Human, 1 μM
[11] = Human plasma, equilibrium dialysis
[12] = in vitro; details: human; remark: listed apart in the source
[13] = Caco-2 cell monolayer permeability assay; details: human
[14] = HepG2 cytotoxicity; assay type: cell-based; details: human, HepG2 cells

For c1cc(Cn2ccnc2)nc(Cn2ccnc2)c1 [Compound 2a, 2,6-bis((1H-imidazol-1-yl)methyl)pyridine], the pIC50 [1] was < 3.70, the IC90 [1] was > 200 µM and the MIC [1] was > 200 µM. The solubility [2] was > 200 µM.
O=[N+]([O-])c1cn(Cc2cccc(Cn3cnc([N+](=O)[O-])c3)n2)cn1 [Compound 2b, 2,6-bis((4-nitro-1H-imidazol-1-yl)methyl)pyridine] showed a pIC50 [1] of 4.11, an IC90 [1] of 100 µM and an MIC [1] of 92 µM (≈ 30.3 µg/mL). The pIC50 [3] was 4.03, the IC90 [3] was 100 µM and the MIC [3] was 101 µM (≈ 33.3 µg/mL). For the same compound, the pIC50 ([4]; Low oxygen) was 4.59, the IC90 ([4]; Low oxygen) was 91 µM and the MIC ([4]; Low oxygen) was 200 µM (≈ 65.9 µg/mL). The pIC50 ([4]; Normal oxygen) was < 3.70, the IC90 ([4]; Normal oxygen) was > 200 µM and the MIC ([4]; Normal oxygen) was > 200 µM. The pIC50 [5] was < 3.70, the IC90 [5] was > 200 µM and the pIC50 [6] was < 4.30.
For COC(=O)C[n+]1ccn(Cc2cccc(Cn3cc[n+](CC(=O)OC)c3)n2)c1 [Compound 4a, 1,1′-(pyridine-2,6-diylbis(methylene))bis(3-(2-methoxy-2-oxoethyl)-1H-imidazol-3-ium) bromide], the pIC50 [1] was < 3.70, the IC90 [1] was > 200 µM and the MIC [1] was > 200 µM.
In the case of NC(=O)C[n+]1ccn(Cc2cccc(Cn3cc[n+](CC(N)=O)c3)n2)c1 [Compound 4b, 1,1′-(pyridine-2,6-diylbis(methylene))bis(3-(2-amino-2-oxoethyl)-1H-imidazol-3-ium) iodide], the pIC50 [1] was < 3.70, the IC90 [1] was > 200 µM and the MIC [1] was > 200 µM.
For O=C(C[n+]1ccn(Cc2cccc(Cn3cc[n+](CC(=O)c4ccccc4)c3)n2)c1)c1ccccc1 [Compound 4c, 1,1′-(pyridine-2,6-diylbis(methylene))bis(3-(2-oxo-2-phenylethyl)-1H-imidazol-3-ium) bromide], the pIC50 [1] was < 3.70, the IC90 [1] was > 200 µM and the MIC [1] was > 200 µM.
For O=C(C[n+]1ccn(Cc2cccc(Cn3cc[n+](CC(=O)c4ccc(Cl)cc4)c3)n2)c1)c1ccc(Cl)cc1 [Compound 4e, 1,1′-(pyridine-2,6-diylbis(methylene))bis(3-(2-(4-chlorophenyl)-2-oxoethyl)-1H-imidazol-3-ium) bromide], the pIC50 [1] was 4.47, the IC90 [1] was 63 µM and the MIC [1] was 51 µM.
Work on O=C(C[n+]1ccn(Cc2cccc(Cn3cc[n+](CC(=O)c4ccc([N+](=O)[O-])cc4)c3)n2)c1)c1ccc([N+](=O)[O-])cc1.[Br-].[Br-] [Compound 4f, 1,1′-(pyridine-2,6-diylbis(methylene))bis(3-(2-(4-nitrophenyl)-2-oxoethyl)-1H-imidazol-3-ium) bromide] yielded a pIC50 [1] of 4.42, an IC90 [1] of 71 µM and an MIC [1] of 58 µM. The pIC50 [3] was 4.35, the IC90 [3] was 140 µM and the MIC [3] was 104 µM. For the same compound, the “mechanism of action (bacteriostatic or bactericidal)” value [7] was “bactericidal”, the pIC50 ([4]; Low oxygen) was 4.60 and the IC90 ([4]; Low oxygen) was 65 µM. For the same compound, the MIC ([4]; Low oxygen) was 183 µM, the pIC50 ([4]; Normal oxygen) was 4.31 and the IC90 ([4]; Normal oxygen) was 78 µM. For the same compound, the MIC ([4]; Normal oxygen) was 129 µM, the MIC [8] was > 200 µM and the “activity against M. abscessus (in words)” value [9] was “showed activity”. The pIC50 [9] was 4.05, the IC90 [9] was 97 µM and the MIC [9] was 110 µM. For the same compound, the pIC50 [5] was 4.59, the IC90 [5] was 48 µM and the pIC50 [6] was < 4.30.
In the case of COc1ccc(C(=O)C[n+]2ccn(Cc3cccc(Cn4cc[n+](CC(=O)c5ccc(OC)cc5)c4)n3)c2)cc1 [Compound 4g, 1,1′-(pyridine-2,6-diylbis(methylene))bis(3-(2-(4-methoxyphenyl)-2-oxoethyl)-1H-imidazol-3-ium) bromide], the pIC50 [1] was 3.80, the IC90 [1] was > 200 µM and the MIC [1] was > 200 µM.
In the case of c1cc(Cn2cnc3ccccc32)nc(Cn2cnc3ccccc32)c1 [Compound 5, 2,6-bis((1H-benzo[d]imidazol-1-yl)methyl)pyridine], the pIC50 [1] was 4.37, the IC90 [1] was > 50 µM and the MIC [1] was > 50 µM. The pIC50 [3] was < 4.30, the IC90 [3] was > 50 µM and the MIC [3] was > 50 µM. For the same compound, the pIC50 ([4]; Low oxygen) was < 4.30, the IC90 ([4]; Low oxygen) was > 50 µM and the MIC ([4]; Low oxygen) was > 50 µM. For the same compound, the pIC50 ([4]; Normal oxygen) was < 4.30, the IC90 ([4]; Normal oxygen) was > 50 µM and the MIC ([4]; Normal oxygen) was > 50 µM. The pIC50 [5] was < 3.70, the IC90 [5] was > 200 µM and the solubility [2] was > 200 µM. The pIC50 [6] was < 4.30.
For COC(=O)C[n+]1cn(Cc2cccc(Cn3c[n+](CC(=O)OC)c4ccccc43)n2)c2ccccc21 [Compound 6a, 1,1′-(pyridine-2,6-diylbis(methylene))bis(3-(2-methoxy-2-oxoethyl)-1H-benzo[d]imidazol-3-ium) bromide], the pIC50 [1] was < 3.70, the IC90 [1] was > 200 µM and the MIC [1] was > 200 µM.
With NC(=O)C[n+]1cn(Cc2cccc(Cn3c[n+](CC(N)=O)c4ccccc43)n2)c2ccccc21 [Compound 6b, 1,1′-(pyridine-2,6-diylbis(methylene))bis(3-(2-amino-2-oxoethyl)-1H-benzo[d]imidazol-3-ium) iodide] the pIC50 [1] was 3.74, the IC90 [1] was > 200 µM and the MIC [1] was > 200 µM.
In the case of O=C(C[n+]1cn(Cc2cccc(Cn3c[n+](CC(=O)c4ccccc4)c4ccccc43)n2)c2ccccc21)c1ccccc1.[Br-].[Br-] [Compound 6c, 1,1′-(pyridine-2,6-diylbis(methylene))bis(3-(2-oxo-2-phenylethyl)-1H-benzo[d]imidazol-3-ium) bromide], the pIC50 [1] was 4.60, the IC90 [1] was 60 µM and the MIC [1] was 56 µM. For the same compound, the pIC50 [3] was 4.47, the IC90 [3] was 110 µM and the MIC [3] was 87 µM. For the same compound, the “mechanism of action (bacteriostatic or bactericidal)” value [7] was “bactericidal”, the pIC50 ([4]; Low oxygen) was 4.80 and the IC90 ([4]; Low oxygen) was 130 µM. It also gave an MIC ([4]; Low oxygen) of 200 µM, a pIC50 ([4]; Normal oxygen) of 4.77 and an IC90 ([4]; Normal oxygen) of 60 µM. For the same compound, the MIC ([4]; Normal oxygen) was > 200 µM, the MIC [8] was > 200 µM and the “activity against M. abscessus (in words)” value [9] was “showed activity”. The pIC50 [9] was 3.92, the IC90 [9] was 200 µM and the MIC [9] was > 200 µM. The pIC50 [5] was 4.43, the IC90 [5] was > 50 µM and the pIC50 [6] was < 4.30.
Work on O=C(C[n+]1cn(Cc2cccc(Cn3c[n+](CC(=O)c4ccc(Cl)cc4)c4ccccc43)n2)c2ccccc21)c1ccc(Cl)cc1 [Compound 6e, 1,1′-(pyridine-2,6-diylbis(methylene))bis(3-(2-(4-chlorophenyl)-2-oxoethyl)-1H-benzo[d]imidazol-3-ium) bromide] yielded a pIC50 [1] of 5.10, an IC90 [1] of 18 µM and an MIC [1] of 17 µM.
COc1ccc(C(=O)C[n+]2cn(Cc3cccc(Cn4c[n+](CC(=O)c5ccc(OC)cc5)c5ccccc54)n3)c3ccccc32)cc1 [Compound 6g, 1,1′-(pyridine-2,6-diylbis(methylene))bis(3-(2-(4-methoxyphenyl)-2-oxoethyl)-1H-benzo[d]imidazol-3-ium) bromide] gave an MIC [1] of 58 µM.
With COc1ccc2c(c1)[C@]13CCCC[C@@H]1[C@H](C2)N(C)CC3 [Dextromethorphan, reference compound] the “NADPH-free CLint” value [10] was <12.8 µL/min/mg and the “NADPH-free T1/2” value [10] was >3 h.
With NNC(=O)c1ccncc1 [Isoniazid, reference compound] the pIC50 [5] was 6.64 and the IC90 [5] was 0.29 µM.
Cc1ncc([N+](=O)[O-])n1CCO [Metronidazole, reference compound] gave a pIC50 ([4]; Low oxygen) of 4.54, an IC90 ([4]; Low oxygen) of 110 µM and an MIC ([4]; Low oxygen) of 200 µM (≈ 34.2 µg/mL). The pIC50 ([4]; Normal oxygen) was < 3.70, the IC90 ([4]; Normal oxygen) was > 200 µM and the MIC ([4]; Normal oxygen) was > 200 µM.
In the case of CC(C)NCC(O)COc1cccc2ccccc12 (centres unmarked) [Propranolol, reference compound], the “Mean plasma fraction bound” value [11] was 79.3%, the recovery [12] was 93% and the fraction unbound ([12]; plasma) was 0.207. It also gave a Papp B→A ([13]; Caco-2) of 25 ×10⁻⁶ cm/s and a Papp A→B ([13]; Caco-2, Mean A→B Papp, Caco-2, apical to basal) of 12.7 ×10⁻⁶ cm/s.
For CO[C@H]1/C=C/O[C@@]2(C)Oc3c(C)c(O)c4c(O)c(c(/C=N/N5CCN(C)CC5)c(O)c4c3C2=O)NC(=O)/C(C)=C\C=C\[C@H](C)[C@H](O)[C@@H](C)[C@@H](O)[C@@H](C)[C@H](OC(C)=O)[C@@H]1C [Rifampicin, reference compound], the pIC50 [3] was 8.40, the IC90 [3] was 0.0077 µM and the MIC [3] was 0.0063 µM (≈ 0.00518 µg/mL). The pIC50 ([4]; Low oxygen) was 8.39, the IC90 ([4]; Low oxygen) was 0.0065 µM and the MIC ([4]; Low oxygen) was 0.13 µM (≈ 0.107 µg/mL). The MIC ([4]; Normal oxygen) was 0.096 µM (≈ 0.079 µg/mL), the MIC [8] was > 200 µM and the pIC50 [9] was 5.68. The IC90 [9] was 3.1 µM and the MIC [9] was 3.3 µM (≈ 2.72 µg/mL).
For CN[C@@H]1C[C@H]2O[C@@](C)([C@@H]1OC)n1c3ccccc3c3c4c(c5c6ccccc6n2c5c31)C(=O)NC4 [Staurosporine, reference compound], the IC50 at 72 h [14] was 0.0086 µM and the pIC50 [6] was 7.74.
Work on CC(=O)CC(c1ccccc1)c1c(O)c2ccccc2oc1=O (centres unmarked) [Warfarin] yielded a recovery [11] of 96.7.

Source: PMC7421780 (Future Medicinal Chemistry, 2020)
